Laboratory results: patent publication US10479795B2 (Incyte Corporation, priority 2016, dated 2019)
pIC50: −log10 of the molar value. Structures can show the parent of a compound that is named as a salt. Where two headings read alike, the source gives them in different places.

Columns and labels:
[1] = molecular target: PI3Kγ (p110γ) Recombinant Human Protein (Homo sapiens (Human), UniProt P48736); assay: PI3K-γ Scintillation Proximity Assay; format: biochemical; conditions: read-out: PI3Kγ IC50
Sequence of PI3Kγ (p110γ) Recombinant Human Protein (P48736 whole entry): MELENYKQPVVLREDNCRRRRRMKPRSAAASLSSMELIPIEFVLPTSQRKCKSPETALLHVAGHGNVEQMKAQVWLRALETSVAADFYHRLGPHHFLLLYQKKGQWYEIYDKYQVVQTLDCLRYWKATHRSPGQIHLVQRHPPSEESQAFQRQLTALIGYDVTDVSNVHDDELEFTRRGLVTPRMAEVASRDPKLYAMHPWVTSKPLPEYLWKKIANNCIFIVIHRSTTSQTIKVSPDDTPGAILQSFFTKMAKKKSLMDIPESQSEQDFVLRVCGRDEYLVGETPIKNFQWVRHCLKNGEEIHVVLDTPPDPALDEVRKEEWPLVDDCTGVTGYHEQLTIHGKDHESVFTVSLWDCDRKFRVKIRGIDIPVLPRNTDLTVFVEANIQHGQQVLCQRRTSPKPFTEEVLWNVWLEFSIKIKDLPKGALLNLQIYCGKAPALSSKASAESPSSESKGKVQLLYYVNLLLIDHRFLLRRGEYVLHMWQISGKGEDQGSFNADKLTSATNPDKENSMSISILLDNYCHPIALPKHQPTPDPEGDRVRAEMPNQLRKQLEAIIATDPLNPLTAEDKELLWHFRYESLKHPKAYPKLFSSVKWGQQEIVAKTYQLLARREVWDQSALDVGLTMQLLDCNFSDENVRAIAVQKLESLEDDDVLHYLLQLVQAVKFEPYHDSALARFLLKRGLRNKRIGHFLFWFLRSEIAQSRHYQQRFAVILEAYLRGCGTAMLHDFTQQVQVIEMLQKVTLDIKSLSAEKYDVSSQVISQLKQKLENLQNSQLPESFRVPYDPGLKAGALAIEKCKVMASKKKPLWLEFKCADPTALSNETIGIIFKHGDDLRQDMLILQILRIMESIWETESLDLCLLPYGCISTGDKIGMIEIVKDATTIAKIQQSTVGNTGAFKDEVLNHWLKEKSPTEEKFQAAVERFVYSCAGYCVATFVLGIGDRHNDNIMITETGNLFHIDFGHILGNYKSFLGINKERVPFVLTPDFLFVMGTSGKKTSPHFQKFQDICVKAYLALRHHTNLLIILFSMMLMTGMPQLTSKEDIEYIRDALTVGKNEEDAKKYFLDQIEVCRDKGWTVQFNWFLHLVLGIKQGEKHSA
Method in brief: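 Recombinant human p110γ assayed at room temperature in 20 mM MOPS pH 6.7, 10 mM MgCl2, 5 mM DTT, 0.03% CHAPS, 2% DMSO, with 20 μM PIP2 and 2 μM ATP plus [γ-33P]ATP. Product captured on WGA SPA beads overnight and counted; IC50 fitted from % of solvent-control activity versus log inhibitor concentration.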

[2] = tested on: Phosphorylated Ribosomal Protein S6 (RPS6); assay: THP-1 RPS6 ELISA Assay; format: cell-based, Human; conditions: THP-1 cells, read-out: PI3Kγ_THP1_RPS6_ELISA IC50
Method in brief: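 Serum-starved THP-1 cells were preincubated with a concentration range of compound for 2 h at 37 °C, then stimulated with 10 nM MCP-1 for 15 min. Phospho-RPS6 in lysates was quantified by ELISA at 450 nm. IC50 came from percent inhibition versus log inhibitor concentration.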

[3] = molecular target: PI3Kδ (p110δ/p85α) Recombinant Human Protein (Homo sapiens (Human), UniProt O00329); assay: PI3Kδ Scintillation Proximity Assay; format: biochemical
Sequence of PI3Kδ (p110δ/p85α) Recombinant Human Protein (O00329 whole entry): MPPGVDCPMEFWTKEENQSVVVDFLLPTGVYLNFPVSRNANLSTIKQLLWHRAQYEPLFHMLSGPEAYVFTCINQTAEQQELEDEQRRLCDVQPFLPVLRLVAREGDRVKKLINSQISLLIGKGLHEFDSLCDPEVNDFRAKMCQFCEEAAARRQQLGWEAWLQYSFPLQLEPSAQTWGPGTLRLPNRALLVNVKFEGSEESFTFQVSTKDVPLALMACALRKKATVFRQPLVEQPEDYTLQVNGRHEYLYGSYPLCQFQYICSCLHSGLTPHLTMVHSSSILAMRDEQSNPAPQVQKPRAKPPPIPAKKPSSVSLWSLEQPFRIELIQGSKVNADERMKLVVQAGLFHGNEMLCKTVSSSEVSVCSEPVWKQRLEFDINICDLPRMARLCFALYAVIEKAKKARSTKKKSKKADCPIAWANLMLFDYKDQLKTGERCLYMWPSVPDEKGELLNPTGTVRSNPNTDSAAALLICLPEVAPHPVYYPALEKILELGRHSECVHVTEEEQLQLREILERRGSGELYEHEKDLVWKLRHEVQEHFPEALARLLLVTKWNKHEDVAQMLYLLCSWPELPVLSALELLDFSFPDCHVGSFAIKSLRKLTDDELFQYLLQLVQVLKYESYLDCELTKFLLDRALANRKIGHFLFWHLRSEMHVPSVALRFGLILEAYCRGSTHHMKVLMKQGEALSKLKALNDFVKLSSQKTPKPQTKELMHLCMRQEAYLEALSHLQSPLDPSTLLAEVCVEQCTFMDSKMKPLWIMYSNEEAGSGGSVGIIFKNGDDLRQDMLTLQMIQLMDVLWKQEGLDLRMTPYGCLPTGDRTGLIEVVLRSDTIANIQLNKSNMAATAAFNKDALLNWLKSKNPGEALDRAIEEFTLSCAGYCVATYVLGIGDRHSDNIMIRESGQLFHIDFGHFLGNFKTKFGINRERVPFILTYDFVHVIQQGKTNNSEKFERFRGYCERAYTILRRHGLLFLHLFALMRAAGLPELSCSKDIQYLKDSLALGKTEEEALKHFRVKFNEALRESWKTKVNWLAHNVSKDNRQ
Sequence of PI3Kδ (p110δ/p85α) Recombinant Human Protein (P27986 whole entry partner): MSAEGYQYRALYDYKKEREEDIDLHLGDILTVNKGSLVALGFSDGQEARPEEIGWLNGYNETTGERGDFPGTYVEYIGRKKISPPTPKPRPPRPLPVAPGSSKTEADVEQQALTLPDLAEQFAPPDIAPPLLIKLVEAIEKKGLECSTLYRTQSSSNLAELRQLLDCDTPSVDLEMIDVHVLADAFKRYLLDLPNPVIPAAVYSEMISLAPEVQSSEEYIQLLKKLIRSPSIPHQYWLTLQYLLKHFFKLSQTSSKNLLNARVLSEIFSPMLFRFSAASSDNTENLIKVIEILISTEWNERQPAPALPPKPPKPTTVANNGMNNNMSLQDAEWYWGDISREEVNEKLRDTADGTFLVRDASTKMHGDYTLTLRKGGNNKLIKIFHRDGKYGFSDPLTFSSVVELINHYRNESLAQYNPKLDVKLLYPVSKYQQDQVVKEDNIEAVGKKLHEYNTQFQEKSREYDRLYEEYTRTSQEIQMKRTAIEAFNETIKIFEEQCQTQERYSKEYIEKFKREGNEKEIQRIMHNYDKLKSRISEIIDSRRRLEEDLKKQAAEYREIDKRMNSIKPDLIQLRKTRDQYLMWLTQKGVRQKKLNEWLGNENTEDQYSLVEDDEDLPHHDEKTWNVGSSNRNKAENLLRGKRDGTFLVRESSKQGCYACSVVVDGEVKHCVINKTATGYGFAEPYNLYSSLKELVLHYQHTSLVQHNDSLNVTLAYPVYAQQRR
Method in brief: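 Kinase reaction run at room temperature in 20 mM MOPS pH 6.7, 10 mM MgCl2, 5 mM DTT, 0.03% CHAPS with 20 μM PIP2, 2 μM ATP plus [γ-33P]ATP, 3.4 nM enzyme, 2% DMSO; 120 min. Quenched with WGA SPA beads/EDTA, counted by scintillation; IC50 from % solvent-control activity vs log concentration.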

Row | Structure (SMILES) | pIC50 [1] | pIC50 [2] | pIC50 [3] | pIC50 ([2]; Homo sapiens)
1 | Cc1ccc(S(=O)(=O)NCC2(O)CNC2)cc1-c1cnc2c(N)nc(C(F)(F)F)nn12 [Example 335, 3-(4-Amino-2-(trifluoromethyl)imidazo[1,2-f][1,2,4]triazin-7-yl)-N-((3-hydroxyazetidin-3-yl)methyl)-4-methylbenzenesulfonamide trifluoroacetate salt] | > 7.00 | 6.30 to 7.00 | 6.30 to 7.00 | –
2 | Cc1ccc(S(N)(=O)=O)cc1-c1cnc2c(N)nc(C(F)(F)F)nn12 [Example 336, 3-(4-Amino-2-(trifluoromethyl)imidazo[1,2-f][1,2,4]triazin-7-yl)-4-methylbenzenesulfonamide trifluoroacetate salt] | > 7.00 | 6.30 to 7.00 | 6.30 to 7.00 | –
3 | Cc1ccc(S(=O)(=O)NC2CN(C3COC3)C2)cc1-c1cnc2c(N)nc(C(F)(F)F)nn12 [Example 337, 3-(4-Amino-2-(trifluoromethyl)imidazo[1,2-f][1,2,4]triazin-7-yl)-4-methyl-N-(1-(oxetan-3-yl)azetidin-3-yl)benzenesulfonamide trifluoroacetate salt] | > 7.00 | 6.30 to 7.00 | 6.30 to 7.00 | –
4 | Cc1ccc(S(=O)(=O)NC23CC(Cn4cncn4)(C2)C3)cc1-c1cnc2c(N)nc(C(F)(F)F)nn12 [Example 338, N-(3-((1H-1,2,4-triazol-1-yl)methyl)bicyclo[1.1.1]pentan-1-yl)-3-(4-amino-2-(trifluoromethyl)imidazo[1,2-f][1,2,4]triazin-7-yl)-4-methylbenzenesulfonamide] | > 7.00 | 6.30 to 7.00 | 6.30 to 7.00 | –
5 | Cc1ccc(S(=O)(=O)NC23CC(C(F)F)(C2)C3)cc1-c1cnc2c(N)nc(C(F)(F)F)nn12 [Example 339, 3-(4-Amino-2-(trifluoromethyl)imidazo[1,2-f][1,2,4]triazin-7-yl)-N-(3-(difluoromethyl)bicyclo[1.1.1]pentan-1-yl)-4-methylbenzenesulfonamide trifluoroacetate salt] | > 7.00 | 6.30 to 7.00 | 6.30 to 7.00 | –
6 | Cc1ccc(S(=O)(=O)NC23CC(N4CCOCC4)(C2)C3)cc1-c1cnc2c(N)nc(C(F)(F)F)nn12 [Example 340, 3-(4-Amino-2-(trifluoromethyl)imidazo[1,2-f][1,2,4]triazin-7-yl)-4-methyl-N-(3-morpholinobicyclo[1.1.1]pentan-1-yl)benzenesulfonamide trifluoroacetate salt] | > 7.00 | 6.30 to 7.00 | 6.30 to 7.00 | –
7 | Cc1ccc(S(=O)(=O)NC23CC(N)(C2)C3)cc1-c1cnc2c(N)nc(C(F)(F)F)nn12 [Example 341, 3-(4-Amino-2-(trifluoromethyl)imidazo[1,2-f][1,2,4]triazin-7-yl)-N-(3-aminobicyclo[1.1.1]pentan-1-yl)-4-methylbenzenesulfonamide trifluoroacetate salt] | > 7.00 | 6.30 to 7.00 | 6.30 to 7.00 | –
8 | Cc1ccc(S(=O)(=O)N2CC(O)(C3CC3)C2)cc1-c1cnc2c(N)nc(C(F)(F)F)nn12 [Example 342, 1-((3-(4-amino-2-(trifluoromethyl)imidazo[2,1-1,2,4]triazin-7-yl)-4-methylphenyl)sulfonyl)-3-cyclopropylazetidin-3-ol TFA] | > 7.00 | 6.30 to 7.00 | 6.30 to 7.00 | –
9 | Cc1ccc(S(=O)(=O)N2CC3(CC(O)C3)C2)cc1-c1cnc2c(N)nc(C(F)(F)F)nn12 [Example 343, 2-((3-(4-amino-2-(trifluoromethyl)imidazo[2,1-f][1,2,4]triazin-7-yl)-4-methylphenyl)sulfonyl)-2-azaspiro[3.3]heptan-6-ol TFA] | > 7.00 | – | > 7.00 | > 7.00
10 | Cc1ccc(S(=O)(=O)N(C)CCC#N)cc1-c1cnc2c(N)nc(C(F)(F)F)nn12 [Example 344, 3-(4-amino-2-(trifluoromethyl)imidazo[2,1-f][1,2,4]triazin-7-yl)-N-(2-cyanoethyl)-N,4-dimethylbenzenesulfonamide] | > 7.00 | – | > 7.00 | 6.30 to 7.00
11 | Cc1ccc(S(=O)(=O)N(CCC#N)C2CC2)cc1-c1cnc2c(N)nc(C(F)(F)F)nn12 [Example 345, 3-(4-amino-2-(trifluoromethyl)imidazo[2,1-f][1,2,4]triazin-7-yl)-N-(2-cyanoethyl)-N-cyclopropyl-4-methylbenzenesulfonamide] | > 7.00 | – | 6.30 to 7.00 | < 6.00
12 | Cc1ccc(S(=O)(=O)N(CCC#N)C2CCCC2)cc1-c1cnc2c(N)nc(C(F)(F)F)nn12 [Example 346, 3-(4-amino-2-(trifluoromethyl)imidazo[2,1-f][1,2,4]triazin-7-yl)-N-(2-cyanoethyl)-N-cyclopentyl-4-methylbenzenesulfonamide] | > 7.00 | – | 6.30 to 7.00 | 6.30 to 7.00
13 | Cc1ccc(S(=O)(=O)N2CCC[C@H]2CO)cc1-c1cnc2c(N)nc(C(F)(F)F)nn12 [Example 347, (S)-(1-((3-(4-amino-2-(trifluoromethyl)imidazo[2,1-f][1,2,4]triazin-7-yl)-4-methylphenyl)sulfonyl)pyrrolidin-2-yl)methanol] | > 7.00 | – | 6.30 to 7.00 | > 7.00
14 | Cc1ccc(S(=O)(=O)N2CC3(CCN(C)C3=O)C2)cc1-c1cnc2c(N)nc(C(F)(F)F)nn12 [Example 348, 2-((3-(4-amino-2-(trifluoromethyl)imidazo[2,1-f][1,2,4]triazin-7-yl)-4-methylphenyl)sulfonyl)-6-methyl-2,6-diazaspiro[3.4]octan-5-one] | > 7.00 | – | > 7.00 | 6.30 to 7.00
15 | Cc1ccc(S(=O)(=O)N2CC3C(O)C2CN3C2CCCC2C#N)cc1-c1cnc2c(N)nc(C(F)(F)F)nn12 (stereo not drawn) [Example 353, 2-(5-((3-(4-amino-2-(trifluoromethyl)imidazo[2,1-f][1,2,4]triazin-7-yl)-4-methylphenyl)sulfonyl)-7-hydroxy-2,5-diazabicyclo[2.2.1]heptan-2-yl)cyclopentane-1-carbonitrile] | > 7.00 | – | 5.70 to 6.30 | < 6.00
16 | Cc1ccc(S(=O)(=O)N2CC3C(O)C2CN3C2CC(C#N)C2)cc1-c1cnc2c(N)nc(C(F)(F)F)nn12 (stereo not drawn) [Example 354, 3-(5-((3-(4-amino-2-(trifluoromethyl)imidazo[2,1-f][1,2,4]triazin-7-yl)-4-methylphenyl)sulfonyl)-7-hydroxy-2,5-diazabicyclo[2.2.1]heptan-2-yl)cyclobutane-1-carbonitrile] | > 7.00 | – | 5.70 to 6.30 | < 6.00
17 | Cc1ccc(S(=O)(=O)N2CC3NCC2C3O)cc1-c1cnc2c(N)nc(C(F)(F)F)nn12 (stereo not drawn) [Example 355, 2-((3-(4-amino-2-(trifluoromethyl)imidazo[2,1-f][1,2,4]triazin-7-yl)-4-methylphenyl)sulfonyl)-2,5-diazabicyclo[2.2.1]heptan-7-ol] | > 7.00 | – | 6.30 to 7.00 | 6.30 to 7.00
18 | Cc1ccc(S(=O)(=O)N[C@H]2CC[C@H](CO)OC2)cc1-c1cnc2c(N)nc(C(F)(F)F)nn12 [Example 356, 3-(4-amino-2-(trifluoromethyl)imidazo[2,1-f][1,2,4]triazin-7-yl)-N-((3S,6R)-6-(hydroxymethyl)tetrahydro-2H-pyran-3-yl)-4-methylbenzenesulfonamide] | > 7.00 | – | 6.30 to 7.00 | > 7.00
19 | C[C@]1(O)CC[C@H](NS(=O)(=O)c2cc(-c3cnc4c(N)nccn34)ccc2F)CC1 [Example 359, 5-(8-aminoimidazo[1,2-a]pyrazin-3-yl)-2-fluoro-N-((1r,4r)-4-hydroxy-4-methylcyclohexyl)benzenesulfonamide] | > 7.00 | < 6.00 | 6.30 to 7.00 | –
20 | Nc1nccn2c(-c3ccc(F)c(S(=O)(=O)NCC4(CO)CCOCC4)c3)cnc12 [Example 360, 5-(8-aminoimidazo[1,2-a]pyrazin-3-yl)-2-fluoro-N-((4-(hydroxymethyl)tetrahydro-2H-pyran-4-yl)methyl)benzenesulfonamide] | 6.30 to 7.00 | – | 6.30 to 7.00 | < 6.00
21 | O=C(O)C(F)(F)F.[2H]C([2H])([2H])c1ccc(S(=O)(=O)NC23CCC(C#N)(CC2)C3)cc1-c1cnc2c(N)ncnn12 [Example 362, 3-(4-Aminoimidazo[2,1-f][1,2,4]triazin-7-yl)-N-(4-cyanobicyclo[2.2.1]heptan-1-yl)-4-(methyl-d3)benzenesulfonamide trifluoroacetate salt] | > 7.00 | – | 6.30 to 7.00 | > 7.00
22 | Cc1cc(C)c(S(=O)(=O)NC23CCC(CO)(C2)C3)cc1-c1cnc2c(N)ncnn12 [Example 363, 5-(4-Aminoimidazo[1,2-f][1,2,4]triazin-7-yl)-N-(4-(hydroxymethyl)bicyclo[2.1.1]hexan-1-yl)-2,4-dimethylbenzenesulfonamide] | > 7.00 | 6.30 to 7.00 | 5.70 to 6.30 | –
23 | N#CC12CCC(NS(=O)(=O)c3cccc(-c4cnc5c(N)ncnn45)c3)(C1)C2 [Example 364, 3-(4-Aminoimidazo[1,2-f][1,2,4]triazin-7-yl)-N-(4-cyanobicyclo[2.1.1]hexan-1-yl)benzenesulfonamide trifluoroacetate salt] | > 7.00 | > 7.00 | 6.30 to 7.00 | –
